Tested on: Serracia marcescens
Assay: agar overlay screening for antimicrobial activity on the TLC plate
Assay type: cell-based
Details: agar gel containing Serracia marcescens poured over the TLC plate, left overnight at room temperature

## c1ccc(CN2CCCC2)cc1 [product]
  antibacterial activity (white inhibition zones around the spot): antibacterial activity
